This is an account of results in patent US20250042889A1, “3CLPRO PROTEASE INHIBITOR” (SHANGHAI QILU PHARMACEUTICAL RESEARCH AND DEVELOPMENT …, priority 2021, published 2025).

SMILES strings stand for the structures.

The target of the test is SARS-COV-2 3CLpro/Mpro protease (Severe acute respiratory syndrome coronavirus 2 (2019-nCoV) (SARS-CoV-2), UniProt P0DTD1). Kind of test: Inhibitory effect on SARS-COV-2 3CLpro/Mpro protease by fluorescence resonance energy transfer. The following applies: activity intervals A-D, read-out: IC50 (nM), Inhibition on SARS-CoV-2 3CLpro/Mpro protease. It is filed as biochemical.
Consider `O=C(c1cc(Br)[nH]c(=O)c1)N1CCC[C@@H](Nc2c(C(=O)N3CCC(F)(F)CC3)cc(Br)cc2[N+](=O)[O-])C1` [Example 150], for which the IC50 lay in the range of 50 to 100 nM.
Regarding `CNc1cncc(C(=O)N2CCC[C@@H](Nc3c(C(=O)N4CCO[C@@H](C(F)(F)F)C4)cc(Br)cc3[N+](=O)[O-])C2)c1` [Example 288], the IC50 is 10 to 50 nM.
For `C[C@@H]1CN(C(=O)c2cc(Br)cc([N+](=O)[O-])c2N[C@@H]2CCCN(C(=O)C3CCCOC3)C2)C[C@H](C)O1` (stereo partly drawn) [Example 145], the IC50 was 10 to 50 nM.
As for `CNc1cncc(C(=O)N2C[C@H](Nc3c(C(=O)N4C[C@@H](C)O[C@@H](C)C4)cc(Br)cc3[N+](=O)[O-])C[C@H]2C(=O)Nc2ccc3nn(C)cc3c2Cl)c1` [Example 425], the figure is 100 to 200 nM; as for `CNc1cncc(C(=O)N2C[C@H](Nc3c(C(=O)N4C[C@@H](C)O[C@@H](C)C4)cc(Br)cc3[N+](=O)[O-])C[C@H]2C(=O)N2CC(O)C2)c1` [Example 386], 50 to 100 nM; as for `CC1CC(C(=O)N2CCC[C@@H](Nc3c(C(=O)N4C[C@@H](C)O[C@@H](C)C4)cc(Br)cc3[N+](=O)[O-])C2)CC(=O)N1` (stereo partly drawn) [Example 179], 50 to 100 nM.
As for `O=C(N[C@H]1CCCC[C@H]1Nc1c(C(=O)N2CC[C@@H](O)C2)cc(Br)cc1C(F)(F)F)c1cncc2cc(Cl)ccc12` [Example 126], the figure is 10 to 50 nM; as for `COCCN1CCN(C(=O)c2cc(Br)cc([N+](=O)[O-])c2N[C@H]2CN(C(=O)c3cncc(I)c3)CC2(C)C)CC1` [Example 190], 10 to 50 nM; as for `CNc1cncc(C(=O)N2CC(Nc3c(C(=O)N4CCN(CCOC)CC4)cc(Br)cc3[N+](=O)[O-])C(F)(F)C2)c1` (stereo not drawn) [Example 298], 10 to 50 nM.
On to `Cc1cc(C(=O)N2CC(Nc3c(C(=O)N4CCC5(CCC5)CC4)cc(Br)cc3[N+](=O)[O-])C(F)(F)C2)cc(=O)[nH]1` (stereo not drawn) [Example 154], for which the IC50 fell in the range of 50 to 100 nM.
On to `CNc1cncc(C(=O)N2C[C@H](Nc3c(C(=O)N4C[C@@H](C)O[C@@H](C)C4)cc(Br)cc3[N+](=O)[O-])[C@@H](OCc3ccccc3)C2)c1` [Example 455], for which the IC50 was 10 to 50 nM.
As for `CCNc1cncc(C(=O)N2CCC[C@@H](Nc3c(C(=O)N4CCCCC4)cc(Br)cc3[N+](=O)[O-])C2)c1` [Example 260], the figure is 10 to 50 nM; as for `CNc1cncc(C(=O)N[C@H]2CCOC[C@H]2Nc2c(C(=O)N3C[C@H](C)O[C@@H](C)C3)cc(Br)cc2[N+](=O)[O-])c1` [Example 224], 10 to 50 nM; as for `O=C(c1cncc(Br)c1)N1CC[C@@H](Nc2c(C(=O)N3CCCCC3)cc(Br)cc2[N+](=O)[O-])C1` [Example 64], 10 to 50 nM.
As for `CNc1cncc(C(=O)N2CCC[C@@H](Nc3c(C(=O)N4CCC[C@H](OC)C4)cc(Br)cc3[N+](=O)[O-])C2)c1` [Example 239], the figure is 10 to 50 nM; as for `CNc1cncc(C(=O)N2C[C@H](Nc3c(C(=O)N4C[C@@H](C)O[C@@H](C)C4)cc(Br)cc3[N+](=O)[O-])C[C@H]2C(=O)Nc2cn(C)c(=O)cc2Cl)c1` [Example 410], 100 to 200 nM; as for `CNc1cncc(C(=O)N[C@H]2CCCC[C@H]2Nc2c(C(=O)N3CCO[C@H](C)C3)cc(Br)cc2[N+](=O)[O-])c1` [Example 237], 10 to 50 nM.
For the compound `COCCN1CCN(C(=O)c2cc(Br)cc([N+](=O)[O-])c2N[C@@H]2COCC[C@@H]2NC(=O)c2cncc3ccccc23)CC1` [Example 218], the IC50 is 10 to 50 nM.
In the case of `COCCN1CCN(C(=O)c2cc(Br)cc([N+](=O)[O-])c2N[C@@H]2CCCN(C(=O)c3cncc(I)c3)C2)CC1` [Example 120], the IC50 was below 10 nM.
As for `CNc1cncc(C(=O)N2CC(Nc3c(C(=O)N4C[C@H](C)C[C@H](C)C4)cc(Br)cc3[N+](=O)[O-])C(C)(C)C2)c1` (stereo partly drawn) [Example 180], the figure is 50 to 100 nM; as for `O=C(c1cc(Br)cc([N+](=O)[O-])c1N[C@@H]1CCCN(C(=O)c2cc(=O)[nH]c3ccccc23)C1)N1CCOCC1` [Example 119], 10 to 50 nM; as for `O=C(N[C@H]1CCCC[C@H]1Nc1c(C(=O)N2C[C@@H](O)C[C@@H](NC(=O)C(F)(F)F)C2)cc(Br)cc1C(F)(F)F)c1cncc2cc(Cl)ccc12` [Example 207], 10 to 50 nM.
As for `CNc1cncc(C(=O)N2CCC[C@@H](Nc3c(C(=O)N4CCN(C)CC4)cc(Br)cc3[N+](=O)[O-])C2)c1` [Example 29, (R)-(5-bromo-2-((1-(5-(methylamino)nicotinoyl)piperidin-3-yl)amino)-3-nitrophenyl)(4-methylpiperazin-1-yl)methanone], the figure is 10 to 50 nM.
With `CNc1cncc(C(=O)N2CCC[C@@H](Nc3c(C(=O)N4CCN(CC(F)(F)F)CC4)cc(Br)cc3[N+](=O)[O-])C2)c1` [Example 22], the IC50 lay in the range of 10 to 50 nM.
`CNc1cncc(C(=O)N2C[C@H](Nc3c(C(=O)N4C[C@@H](C)O[C@@H](C)C4)cc(Br)cc3[N+](=O)[O-])C[C@H]2C(=O)Nc2cnoc2)c1` [Example 369, (2S,4R)-4-((4-bromo-2-((2R,6S)-2,6-dimethylmorpholin-4-carbonyl)-6-nitrophenyl)amino)-N-(isoxazol-4-yl)-1-(5-(methylamino)nicotinoyl) pyrrolidin-2-formamide]: the IC50 was in the range of 50 to 100 nM.
As for `O=C(c1cc(Br)cc([N+](=O)[O-])c1N[C@@H]1CCCN(C(=O)[C@H]2CNCC(F)(F)C2)C1)N1CCOC2(CC2)C1` [Example 328], the figure is 10 to 50 nM; as for `CNc1cncc(C(=O)N2C[C@H](Nc3c(C(=O)N4CCC(C)(C)CC4)cc(Br)cc3[N+](=O)[O-])C3(CC3)C2)c1` [Example 87], 10 to 50 nM.
As to `O=C(c1cc(Br)cc([N+](=O)[O-])c1N[C@@H]1CCCN(C(=O)c2cnnc3ccccc23)C1)N1CCCCC1` [Example 11, (R)-(5-bromo-2-((1-(4-cinnolin-carbonyl)piperidin-3-yl)amino)-3-nitrophenyl)(piperidin-1-yl)methanone], the IC50 was 50 to 100 nM.
As for `CNc1cncc(C(=O)N2C[C@H](Nc3c(C(=O)N4C[C@@H](C)O[C@@H](C)C4)cc(Br)cc3[N+](=O)[O-])C[C@@H]2C#N)c1` [Example 391], the figure is 50 to 100 nM.
As for `CNc1cncc(C(=O)N2C[C@H](Nc3c(C(=O)N4C[C@@H](C)O[C@@H](C)C4)cc(Br)cc3[N+](=O)[O-])C[C@H]2C(=O)NCc2ccnc(C(F)(F)F)n2)c1` [Example 450, (2S,4R)-4-((4-bromo-2-((2R,6S)-2,6-dimethylmorpholin-4-carbonyl)-6-nitrophenyl)amino)-1-(5-(methylamino)nicotinoyl)-N-((2-(trifluoromethyl)pyrimidin-4-yl)methyl) pyrrolidine-2-formamide], the figure is 10 to 50 nM.
With `CNc1cncc(C(=O)N2C[C@H](Nc3c(C(=O)N4C[C@@H](C)O[C@@H](C)C4)cc(Br)cc3[N+](=O)[O-])C[C@H]2C(=O)N[C@@H]2CCNC2=O)c1` [Example 397], the IC50 fell in the range of 50 to 100 nM.
For `CNc1cncc(C(=O)N2CCC[C@@H](Nc3c(C(=O)N4CCC5(CCCCO5)CC4)cc(Br)cc3[N+](=O)[O-])C2)c1` [Example 270], the IC50 lay in the range of 10 to 50 nM.
As for `CNc1cncc(C(=O)N2CCC[C@@H](Nc3c(C(=O)N4CCC5(CC4)COC(C)(C)C5)cc(Br)cc3[N+](=O)[O-])C2)c1` [Example 339], the figure is 10 to 50 nM.
Regarding `CNc1cncc(C(=O)N2C[C@H](Nc3c(C(=O)N4C[C@@H](C)O[C@@H](C)C4)cc(Br)cc3[N+](=O)[O-])C[C@H]2C(=O)N(C)C)c1` [Example 377], the IC50 is 50 to 100 nM.
As to `CNc1cncc(C(=O)N2C[C@H](Nc3c(C(=O)N4CCCCC4)cc(Br)cc3[N+](=O)[O-])[C@H](OC)C2)c1` [Example 308], the IC50 was in the range of 10 to 50 nM.
As for `CNc1cncc(C(=O)N2C[C@H](Nc3c(C(=O)N4C[C@@H](C)O[C@@H](C)C4)cc(Br)cc3[N+](=O)[O-])C[C@H]2C(=O)NCc2ccncc2)c1` [Example 395], the figure is 50 to 100 nM.
Take `CNc1cncc(C(=O)N2CCC[C@@H](Nc3c(C(=O)N4Cc5cnn(C)c5C4)cc(Br)cc3[N+](=O)[O-])C2)c1` [Example 284]: the IC50 fell in the range of 10 to 50 nM.
As for `C[C@@H]1CN(C(=O)c2cc(Br)cc([N+](=O)[O-])c2N[C@@H]2CCCN(C(=O)c3cncc4[nH]ccc34)C2)C[C@H](C)O1` [Example 17], the figure is 10 to 50 nM.
For the compound `Cc1cc(C(=O)N2CC(Nc3c(C(=O)N4CCN(C5CCCCC5)CC4)cc(Br)cc3[N+](=O)[O-])C(F)(F)C2)cc(=O)[nH]1` (stereo not drawn) [Example 300], the IC50 lay within 10 to 50 nM.
As for `CNc1cncc(C(=O)N2C[C@H](Nc3c(C(=O)N4C[C@@H](C)O[C@@H](C)C4)cc(Br)cc3[N+](=O)[O-])C[C@@H](OCCOC)C2)c1` [Example 446], the figure is 10 to 50 nM; as for `O=C(N[C@H]1CCCC[C@H]1Nc1c(C(=O)N2CCCCC2)cc(Br)cc1[N+](=O)[O-])c1cncc(Br)c1` [Example 14], 10 to 50 nM.
As for `CNc1cncc(C(=O)N2C[C@H](Nc3c(C(=O)N4C[C@H](C)C[C@@H](C)C4)cc(Br)cc3[N+](=O)[O-])C(F)(F)C2)c1` [Example 202], the IC50 is 10 to 50 nM.
With `Cc1cc(C(=O)N2CC(Nc3c(C(=O)N4CCCCC4)cc(Br)cc3[N+](=O)[O-])C(F)(F)C2)cc(=O)[nH]1` (stereo not drawn) [Example 101], the IC50 is 50 to 100 nM.
For the compound `CNc1cncc(C(=O)N2CC(Nc3c(C(=O)N4C[C@@H](C)O[C@@H](C)C4)cc(Br)cc3[N+](=O)[O-])C(F)(F)C2)c1` (stereo partly drawn) [Example 161], the IC50 lay within 10 to 50 nM.
As for `Cc1cc(C(=O)N2CCC[C@@H](Nc3c(C(=O)N4CC5CC5C4)cc(Br)cc3[N+](=O)[O-])C2)cc(=O)[nH]1` (stereo partly drawn) [Example 148], the figure is 50 to 100 nM; as for `O=C(c1cncc(C(F)(F)F)c1)N1CCC[C@@H](Nc2c(C(=O)N3CCC(F)(F)CC3)cc(Br)cc2[N+](=O)[O-])C1` [Example 70], 10 to 50 nM; as for `C[C@H]1CN(C(=O)c2cc(Br)cc([N+](=O)[O-])c2N[C@@H]2CCCN(C(=O)[C@H]3CC(=O)Nc4ccccc43)C2)CCO1` [Example 283], 10 to 50 nM.
As for `CNc1cncc(C(=O)N2CCC[C@@H](Nc3c(C(=O)N4C[C@@H](C)N(C)[C@@H](C)C4)cc(Br)cc3[N+](=O)[O-])C2)c1` [Example 79], the figure is 50 to 100 nM.
